The values that follow come from PubChem BioAssay (NCI).

Each structure is given as a SMILES string. “And” between values parts separate entries of the source, which are not always exact repeats. Identical values can stand only once.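 Step 1: Grow cells in 96-well plates. Step 2: Expose to compound for 48 hours at 5 concentrations. Step 3: Interpolate endpoints linearly; if unreached, use highest concentration. The concentration for 50% growth inhibition is given as GI50. TGI denotes the concentration required for complete inhibition of growth.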 A value given as a limit tells only on which side of the number the result lay.

Some test systems named below: NCI-H226 lung; RXF 393 renal; IGROV1 ovarian; KM20L2 colon; MALME-3M melanoma; OVCAR-5 ovarian; NCI-H460 lung; DMS 273 small cell lung; HOP-92 NSCLC; MDA-MB-231 breast.
Holding throughout (test): growth of human tumour cells (NCI), 48 h

With `Clc1cccc(-c2nnc(-c3nn(-c4ccccc4)c4nc5ccccc5nc34)o2)c1`, the TGI with NCI-H226 lung, with RXF 393 renal, in the assay with IGROV1 ovarian, in the assay with KM20L2 colon, with MALME-3M melanoma and in the assay with OVCAR-5 ovarian was more than 100 µM throughout. In addition, the TGI with NCI-H460 lung and in the assay with DMS 273 small cell lung was more than 100 µM throughout.
As to `CC(=O)[CH-]C(=O)c1ccccc1.CC(=O)[CH-]C(=O)c1ccccc1.O=S(=O)([O-])c1cc([O-])c2c([O-])cc(S(=O)(=O)[O-])cc2c1.[Na+].[Zr+4]`, the GI50 was 30.4 µM in the assay with NCI-H226 lung; more than 100 µM in the assay with IGROV1 ovarian; more than 100 µM in the assay with KM20L2 colon; 53.1 µM with MALME-3M melanoma; more than 100 µM in the assay on OVCAR-5 ovarian; 94.1 µM in the assay with NCI-H460 lung. The TGI in the assay with NCI-H226 lung is 90.9 µM; in the assay with IGROV1 ovarian, more than 100 µM; with KM20L2 colon, more than 100 µM; in the assay with MALME-3M melanoma, more than 100 µM; with OVCAR-5 ovarian, more than 100 µM; in the assay on NCI-H460 lung, more than 100 µM.
As to `Cc1cc(C)c(-c2noc(-c3ccc(Cl)cc3)c2C2=NCCCN2)c(C)c1`, the TGI was 95.3 µM in the assay on NCI-H226 lung; 48.5 µM in the assay on RXF 393 renal; more than 100 µM in the assay with IGROV1 ovarian; 70.6 µM in the assay on KM20L2 colon; 36.8 µM with MALME-3M melanoma; 86 µM in the assay on OVCAR-5 ovarian. The TGI in the assay with NCI-H460 lung worked out at 28.8 µM.
For `O=C(Nc1ccc(Cl)cc1Cl)OC(Cn1cncn1)c1ccc(Cl)cc1Cl` (centres undefined), the TGI in the assay with NCI-H226 lung came out at 39 µM; in the assay with RXF 393 renal it was 30.9 µM; with IGROV1 ovarian it was 31.4 µM; in the assay on KM20L2 colon it was 30.3 µM; with MALME-3M melanoma, 29.3 µM; in the assay with DMS 273 small cell lung it was 31.4 µM.
`CNS(=O)(=O)NNS(=O)(=O)c1ccc(OC)cc1`: the TGI with RXF 393 renal, in the assay on IGROV1 ovarian, in the assay with KM20L2 colon, in the assay with MALME-3M melanoma, in the assay with NCI-H460 lung and in the assay with DMS 273 small cell lung was more than 100 µM each time.
For the compound `O=C(Nc1ccc(Cl)c(Cl)c1)C(=O)C(C(=O)c1ccccc1-c1ccccc1)C1OC(=O)c2ccccc21` (centres undefined), the TGI in the assay on NCI-H226 lung was determined as 15.1 µM; with RXF 393 renal, 21.5 µM; in the assay with IGROV1 ovarian, 73.5 µM; in the assay on HOP-92 NSCLC, 30.2 µM; in the assay with KM20L2 colon, 52.7 µM; in the assay with OVCAR-5 ovarian, 33.9 µM. Further, the TGI in the assay on NCI-H460 lung stood at 62.6 µM.
Regarding `COc1ccc(OC)c(/C=N/N=C(\N)NO)c1`, the TGI is more than 100 µM in the assay with NCI-H226 lung; more than 100 µM in the assay on RXF 393 renal; more than 100 µM in the assay on IGROV1 ovarian; 83.6 µM in the assay on HOP-92 NSCLC; more than 100 µM with MALME-3M melanoma; more than 100 µM in the assay on OVCAR-5 ovarian. For the same compound, the TGI in the assay on NCI-H460 lung and with DMS 273 small cell lung was more than 100 µM throughout.
With `O=C(/C=C\c1cccc2ccccc12)c1ccc(Cl)cc1Cl`, the TGI was more than 100 µM in the assay with NCI-H226 lung; more than 100 µM with IGROV1 ovarian; 91.8 µM in the assay on KM20L2 colon; 65.6 µM in the assay on MALME-3M melanoma; 72.3 µM in the assay on OVCAR-5 ovarian; 51.6 µM in the assay with NCI-H460 lung. Moreover, the TGI in the assay with DMS 273 small cell lung stood at 34.8 µM.
In the case of `CCOc1ccn(-c2ccc(F)cc2)c(=O)c1C(=O)Nc1ccc(Oc2ccnc(N)c2Cl)c(F)c1`, the GI50 in the assay with NCI-H226 lung is 10.6 µM; with RXF 393 renal it was 7.06 µM; in the assay on IGROV1 ovarian it was 17.3 µM; with MDA-MB-231 breast, 6.33 µM; in the assay with HOP-92 NSCLC, 0.801 µM; in the assay on MALME-3M melanoma, 7.72 µM. The GI50 with OVCAR-5 ovarian is 12.9 µM; in the assay on NCI-H460 lung, 4.74 µM. Besides, the TGI in the assay on NCI-H226 lung was more than 96.1 µM; in the assay with RXF 393 renal, 36.8 µM; in the assay on IGROV1 ovarian it was more than 100 µM; in the assay on MDA-MB-231 breast, 23.9 µM; with HOP-92 NSCLC it was 12.3 µM; in the assay with MALME-3M melanoma, 46.4 µM. Further, the TGI with OVCAR-5 ovarian is 67 µM; in the assay with NCI-H460 lung, more than 87 µM.
With `O=C1c2ccccc2-c2c1c1ccccc1c(=O)n2CCCNCCn1c2c(c3ccccc3c1=O)C(=O)c1ccccc1-2`, the GI50 in the assay with NCI-H226 lung was 4.59 µM; in the assay with RXF 393 renal, 2.29 µM; in the assay with IGROV1 ovarian, 2.63 µM; with MDA-MB-231 breast, 2 µM; in the assay with HOP-92 NSCLC, 14.1 µM; with MALME-3M melanoma it was 22.1 µM. Also, the GI50 was 14.9 µM in the assay with OVCAR-5 ovarian and 3.02 µM in the assay with NCI-H460 lung. Further, the TGI with NCI-H226 lung stood at 20.7 µM; in the assay with RXF 393 renal it was 13.9 µM; with IGROV1 ovarian it was 32.2 µM; in the assay with MDA-MB-231 breast, 9.25 µM; in the assay on HOP-92 NSCLC, 28.1 µM; in the assay on MALME-3M melanoma it was 40.3 µM. Moreover, the TGI in the assay with OVCAR-5 ovarian turned out to be 28.1 µM; in the assay on NCI-H460 lung it was 17.6 µM.
For `CC(=O)[CH-]C(=O)c1ccccc1.CC(=O)[CH-]C(=O)c1ccccc1.CC(=O)[CH-]C(=O)c1ccccc1.[Nd+3].[OH3+]`, the GI50 is more than 100 µM in the assay with NCI-H226 lung; 97.9 µM in the assay on IGROV1 ovarian; 29.5 µM with HOP-92 NSCLC; 38 µM in the assay on KM20L2 colon; 27.2 µM in the assay on MALME-3M melanoma; 93.1 µM in the assay on OVCAR-5 ovarian. In addition, the GI50 with NCI-H460 lung was 42.8 µM. Also, the TGI was more than 100 µM in the assay on NCI-H226 lung; more than 100 µM with IGROV1 ovarian; 77.4 µM with HOP-92 NSCLC; more than 100 µM with KM20L2 colon; 94.4 µM with MALME-3M melanoma; more than 100 µM with OVCAR-5 ovarian. In the assay on NCI-H460 lung, the TGI was more than 100 µM.
`COc1cc(C(=O)c2cnc(-c3cccc4[nH]ccc34)[nH]2)cc(OC)c1OC`: the GI50 in the assay on NCI-H226 lung was 0.169 µM; with RXF 393 renal, 0.113 µM; with IGROV1 ovarian, 0.0966 µM and < 0.01 µM; with HOP-92 NSCLC, 1.5 µM; with MALME-3M melanoma, 19.6 µM; with NCI-H460 lung, 0.0434 µM and < 0.01 µM. For the same compound, the TGI in the assay with IGROV1 ovarian is more than 100 µM; in the assay with MDA-MB-231 breast, 20.7 µM; in the assay on HOP-92 NSCLC, 48.1 µM; with MALME-3M melanoma it was 83 µM; in the assay on OVCAR-5 ovarian it was more than 100 µM; with NCI-H460 lung, more than 100 µM.
With `CC[C@@H](C)/C=C(C)/C=C/C(=O)c1c(O)c(-c2ccc(O)cc2)cn(O)c1=O`, the GI50 was 0.274 µM in the assay on NCI-H226 lung; 0.22 µM in the assay with RXF 393 renal; 0.421 µM in the assay on IGROV1 ovarian; 0.733 µM with MDA-MB-231 breast; 0.137 µM in the assay with HOP-92 NSCLC; 0.255 µM in the assay on MALME-3M melanoma. Also, the GI50 in the assay with OVCAR-5 ovarian was 2.71 µM; with NCI-H460 lung, 0.292 µM. Moreover, the TGI was 4.88 µM in the assay on NCI-H226 lung; 2.25 µM in the assay with RXF 393 renal; 11.4 µM in the assay with IGROV1 ovarian; 23 µM in the assay on MDA-MB-231 breast; 1.86 µM in the assay with HOP-92 NSCLC; 4.7 µM with MALME-3M melanoma. In addition, the TGI with OVCAR-5 ovarian was determined as 20.8 µM; with NCI-H460 lung it was 1.11 µM.
On to `COC(=O)c1oc2c(C(=O)/C=C/c3ccc(OC)cc3)c(OCCN(C)C)ccc2c1C`, for which the GI50 in the assay on NCI-H226 lung is 13.1 µM; with RXF 393 renal it was 3.91 µM; in the assay on IGROV1 ovarian it was 5.99 µM; with MDA-MB-231 breast it was 8.33 µM; with HOP-92 NSCLC, 5.91 µM; in the assay on MALME-3M melanoma, 11.4 µM. Also, the GI50 with OVCAR-5 ovarian was 15.8 µM; in the assay on NCI-H460 lung it was 4.56 µM. The TGI with NCI-H226 lung was determined as 27.8 µM; in the assay on RXF 393 renal, 14.6 µM; in the assay on IGROV1 ovarian it was 21.4 µM; in the assay with MDA-MB-231 breast, 22.9 µM; with HOP-92 NSCLC, 19.8 µM; in the assay with MALME-3M melanoma, 27.8 µM. For the same compound, the TGI was 32.9 µM with OVCAR-5 ovarian and 17.5 µM in the assay with NCI-H460 lung.
As for `C=CCC(N[C@@H](CO)c1ccccc1)c1cn(C(=O)OCC)c2ccccc12` (some centres undefined), the GI50 with NCI-H226 lung is 23.1 µM; in the assay with RXF 393 renal it was 22.8 µM; in the assay on IGROV1 ovarian it was 23.1 µM; in the assay on MDA-MB-231 breast, 20.6 µM; in the assay with HOP-92 NSCLC it was 16.5 µM; in the assay on MALME-3M melanoma, 17.1 µM. For the same compound, the GI50 in the assay with OVCAR-5 ovarian was 23.3 µM; in the assay on NCI-H460 lung, 26.2 µM. Moreover, the TGI is 48.7 µM in the assay on NCI-H226 lung; 84.2 µM with RXF 393 renal; more than 100 µM in the assay on IGROV1 ovarian; 43.5 µM in the assay with MDA-MB-231 breast; 39.8 µM in the assay on HOP-92 NSCLC; 39.1 µM with MALME-3M melanoma. Moreover, the TGI was found to be 66.1 µM with OVCAR-5 ovarian and 70.1 µM with NCI-H460 lung.
In the case of `Cn1cc(-c2cnn3c(N)c(Br)c(C4CCCNC4)nc23)cn1` (centres undefined), the GI50 with NCI-H226 lung was 13.9 µM; with RXF 393 renal it was 0.257 µM; with IGROV1 ovarian it was 6.72 µM; in the assay on MDA-MB-231 breast it was 5.53 µM; in the assay on HOP-92 NSCLC it was 5.51 µM; in the assay on MALME-3M melanoma it was 6.11 µM. Further, the GI50 with OVCAR-5 ovarian is 6.96 µM; in the assay with NCI-H460 lung it was 6.54 µM. Moreover, the TGI is more than 96 µM in the assay with NCI-H226 lung; 0.799 µM in the assay with RXF 393 renal; more than 100 µM with IGROV1 ovarian; 40 µM in the assay with MDA-MB-231 breast; more than 68.5 µM in the assay with HOP-92 NSCLC; 27.1 µM in the assay on MALME-3M melanoma. The values for the TGI in the assay with OVCAR-5 ovarian and in the assay with NCI-H460 lung were more than 73 µM and 30.7 µM, respectively.
Take `O=C(O)C1[O][Sb][O]C(C(=O)O)C1O` (centres undefined): the GI50 in the assay on NCI-H226 lung, in the assay with RXF 393 renal, in the assay with IGROV1 ovarian, in the assay on MDA-MB-231 breast, in the assay on HOP-92 NSCLC and in the assay on MALME-3M melanoma was more than 100 µM in each case. The GI50 with OVCAR-5 ovarian and in the assay with NCI-H460 lung was more than 100 µM throughout. Further, the TGI in the assay on NCI-H226 lung, with RXF 393 renal, in the assay on IGROV1 ovarian, in the assay with MDA-MB-231 breast, in the assay on HOP-92 NSCLC and in the assay with MALME-3M melanoma was more than 100 µM each time. The TGI with OVCAR-5 ovarian and in the assay on NCI-H460 lung was more than 100 µM throughout.
